Columns and labels:
Assay in all cases: R-SAT broad profiling
Format in all cases: cell-based
5-HT6 = biological target: T1, 5-HT6 (Homo sapiens, UniProt P50406); settings: read-out: pEC50/pIC50 (converted)
T1 construct: expressed in transfected cells
Method: (§1) The functional receptor assay, Receptor Selection and Amplification Technology (R-SAT), was used (with minor modifications from that previously described U.S. Pat. No. 5,707,798) to screen compounds for efficacy at the 5-HT2A receptor. Briefly, NIH3T3 cells were grown in 96 well tissue culture plates to 70-80% confluence. Cells were transfected for 12-16 hours with plasmid DNAs using superfect (Qiagen Inc.) as per manufacture's protocols. R-SAT's were generally performed with 50 ng/well of receptor and 20 ng/well of Beta-galactosidase plasmid DNA. All receptor and G-protein constructs used were in the pSI mammalian expression vector (Promega Inc) as described in U.S. Pat. No. 5,707,798. The 5HT2A receptor gene was amplified by nested PCR from brain cDNA using the oligodeoxynucleotides based on the published sequence (see Saltzman et. al. Biochem. Biophys. Res. Comm. 181:1469-78 (1991)). Large-scale transfections, cells were transfected for 12-16 hours, then trypsinized and frozen in DMSO. Frozen cells were later thawed, plated at 10,000-40,000 cells per well of a 96 well plate that contained drug. With both methods, cells were then grown in a humidified atmosphere with 5% ambient CO2 for five days. Media was then removed from the plates and marker gene activity was measured by the addition of the beta-galactosidase substrate ONPG (in PBS with 5% NP-40). The resulting colorimetric reaction was measured in a spectrophotometric plate reader (Titertek Inc.)at […]. All data were analyzed using the computer program XLFit (IDBSm). Efficacy is the percent maximal repression compared to repression by a control compound (ritanserin in the case of 5HT2A). pIC50 is the negative of the log(IC50), where IC50 is the calculated concentration in Molar that produces 50% maximal repression.
(§2) The R-SAT assay (described above in example 136) was used to investigate the selectivity of 2-(4-Methoxyphenyl)-N-(4-methylbenzyl)-N-(1-methylpiperidin-4-yl)acetamide hydrochloride.

D1 = biological target: T2, D1 (Homo sapiens, UniProt P21728); settings: read-out: pEC50/pIC50 (converted)
T2 construct: expressed in transfected cells; host or cells: NIH3T3
T2 sequence (P21728 whole entry): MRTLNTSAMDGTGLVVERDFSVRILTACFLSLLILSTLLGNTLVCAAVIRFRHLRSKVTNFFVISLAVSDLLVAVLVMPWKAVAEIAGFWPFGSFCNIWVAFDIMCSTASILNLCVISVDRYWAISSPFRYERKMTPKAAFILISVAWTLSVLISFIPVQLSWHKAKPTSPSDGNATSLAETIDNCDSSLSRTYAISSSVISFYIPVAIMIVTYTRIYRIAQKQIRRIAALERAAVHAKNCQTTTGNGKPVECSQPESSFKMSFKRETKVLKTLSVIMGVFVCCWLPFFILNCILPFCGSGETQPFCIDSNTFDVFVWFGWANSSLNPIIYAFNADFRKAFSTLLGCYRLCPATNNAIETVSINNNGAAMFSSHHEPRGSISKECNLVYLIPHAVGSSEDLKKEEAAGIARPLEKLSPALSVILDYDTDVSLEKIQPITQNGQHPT
Method: as §1, §2

Histamine 2 = biological target: T3, Histamine 2 (Homo sapiens, UniProt P25021); settings: read-out: pEC50/pIC50 (converted)
T3 construct: expressed in transfected cells; host or cells: NIH3T3
T3 sequence (P25021 whole entry): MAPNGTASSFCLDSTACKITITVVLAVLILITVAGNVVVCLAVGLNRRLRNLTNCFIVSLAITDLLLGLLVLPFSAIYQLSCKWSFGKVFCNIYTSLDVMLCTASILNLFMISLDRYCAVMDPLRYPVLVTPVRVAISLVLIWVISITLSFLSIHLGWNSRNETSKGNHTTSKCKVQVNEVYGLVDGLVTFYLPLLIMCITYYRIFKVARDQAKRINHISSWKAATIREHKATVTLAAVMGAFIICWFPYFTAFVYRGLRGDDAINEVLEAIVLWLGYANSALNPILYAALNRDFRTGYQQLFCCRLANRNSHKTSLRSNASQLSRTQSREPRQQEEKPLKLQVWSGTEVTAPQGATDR
Method: as §1, §2

NK-1 = biological target: T4, NK-1 (Homo sapiens, UniProt P25103); settings: agonist; read-out: pEC50/pIC50 (converted)
T4 construct: expressed in transfected cells; host or cells: NIH3T3
T4 sequence (P25103 whole entry): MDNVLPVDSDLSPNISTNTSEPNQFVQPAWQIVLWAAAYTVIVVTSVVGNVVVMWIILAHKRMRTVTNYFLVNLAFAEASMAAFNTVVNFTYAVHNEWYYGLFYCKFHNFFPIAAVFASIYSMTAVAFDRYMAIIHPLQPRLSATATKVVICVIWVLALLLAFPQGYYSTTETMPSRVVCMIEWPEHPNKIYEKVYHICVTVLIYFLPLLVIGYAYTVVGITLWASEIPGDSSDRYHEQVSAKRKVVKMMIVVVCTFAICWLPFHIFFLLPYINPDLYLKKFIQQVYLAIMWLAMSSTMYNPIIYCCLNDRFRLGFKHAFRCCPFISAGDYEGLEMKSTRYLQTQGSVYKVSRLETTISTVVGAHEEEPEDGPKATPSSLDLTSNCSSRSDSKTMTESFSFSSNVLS
Method: as §1, §2

alpha 2A = biological target: T5, alpha 2A (Homo sapiens, UniProt P08913); settings: read-out: pEC50/pIC50 (converted)
T5 construct: expressed in transfected cells; host or cells: NIH3T3
T5 sequence (P08913 1-465): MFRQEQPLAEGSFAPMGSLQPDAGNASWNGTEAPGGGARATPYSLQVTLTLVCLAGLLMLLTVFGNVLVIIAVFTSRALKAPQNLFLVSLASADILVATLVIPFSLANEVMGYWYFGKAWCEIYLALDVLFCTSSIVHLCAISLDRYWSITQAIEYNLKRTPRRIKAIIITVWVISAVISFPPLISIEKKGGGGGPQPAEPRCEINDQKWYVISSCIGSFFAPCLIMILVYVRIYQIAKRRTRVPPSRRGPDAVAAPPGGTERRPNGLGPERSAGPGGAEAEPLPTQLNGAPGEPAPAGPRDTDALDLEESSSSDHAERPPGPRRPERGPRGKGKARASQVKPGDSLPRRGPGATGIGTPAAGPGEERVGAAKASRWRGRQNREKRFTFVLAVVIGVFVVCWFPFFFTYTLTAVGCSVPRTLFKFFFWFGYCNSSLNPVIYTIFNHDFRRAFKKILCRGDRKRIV
Method: as §1, §2

beta 1 = biological target: T6, beta 1 (Homo sapiens, UniProt P08588); settings: read-out: pEC50/pIC50 (converted)
T6 construct: expressed in transfected cells; host or cells: NIH3T3
T6 sequence (P08588 whole entry): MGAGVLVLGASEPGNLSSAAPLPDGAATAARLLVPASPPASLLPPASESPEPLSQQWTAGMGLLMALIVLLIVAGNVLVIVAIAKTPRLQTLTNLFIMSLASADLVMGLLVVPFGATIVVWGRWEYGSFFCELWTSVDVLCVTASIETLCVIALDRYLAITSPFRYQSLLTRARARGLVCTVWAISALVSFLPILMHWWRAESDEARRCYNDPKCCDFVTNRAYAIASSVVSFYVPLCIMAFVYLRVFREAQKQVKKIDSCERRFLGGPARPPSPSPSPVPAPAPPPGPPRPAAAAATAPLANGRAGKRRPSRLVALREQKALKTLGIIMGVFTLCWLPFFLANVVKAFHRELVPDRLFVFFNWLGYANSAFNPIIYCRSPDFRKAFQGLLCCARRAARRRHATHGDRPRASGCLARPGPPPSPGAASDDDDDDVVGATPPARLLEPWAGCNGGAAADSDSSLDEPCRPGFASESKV
Method: as §1, §2

beta 2 = biological target: T7, beta 2 (Homo sapiens, UniProt P07550); settings: read-out: pEC50/pIC50 (converted)
T7 construct: expressed in transfected cells; host or cells: NIH3T3
T7 sequence (P07550 whole entry): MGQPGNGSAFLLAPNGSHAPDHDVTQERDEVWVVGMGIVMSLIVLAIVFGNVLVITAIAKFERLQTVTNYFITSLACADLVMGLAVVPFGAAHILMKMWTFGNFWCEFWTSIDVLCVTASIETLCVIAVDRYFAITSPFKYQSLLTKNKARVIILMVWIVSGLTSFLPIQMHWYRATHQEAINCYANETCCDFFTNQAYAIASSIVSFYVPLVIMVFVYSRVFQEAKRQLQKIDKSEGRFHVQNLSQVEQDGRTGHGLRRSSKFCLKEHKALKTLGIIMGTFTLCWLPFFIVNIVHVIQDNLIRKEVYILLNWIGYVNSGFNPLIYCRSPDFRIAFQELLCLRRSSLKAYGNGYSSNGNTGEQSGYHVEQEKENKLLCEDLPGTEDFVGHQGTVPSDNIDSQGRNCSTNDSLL
Method: as §1, §2

m3 = biological target: T8, m3 (Homo sapiens, UniProt P20309); settings: read-out: pEC50/pIC50 (converted)
T8 construct: expressed in transfected cells; host or cells: NIH3T3
T8 sequence (P20309 whole entry): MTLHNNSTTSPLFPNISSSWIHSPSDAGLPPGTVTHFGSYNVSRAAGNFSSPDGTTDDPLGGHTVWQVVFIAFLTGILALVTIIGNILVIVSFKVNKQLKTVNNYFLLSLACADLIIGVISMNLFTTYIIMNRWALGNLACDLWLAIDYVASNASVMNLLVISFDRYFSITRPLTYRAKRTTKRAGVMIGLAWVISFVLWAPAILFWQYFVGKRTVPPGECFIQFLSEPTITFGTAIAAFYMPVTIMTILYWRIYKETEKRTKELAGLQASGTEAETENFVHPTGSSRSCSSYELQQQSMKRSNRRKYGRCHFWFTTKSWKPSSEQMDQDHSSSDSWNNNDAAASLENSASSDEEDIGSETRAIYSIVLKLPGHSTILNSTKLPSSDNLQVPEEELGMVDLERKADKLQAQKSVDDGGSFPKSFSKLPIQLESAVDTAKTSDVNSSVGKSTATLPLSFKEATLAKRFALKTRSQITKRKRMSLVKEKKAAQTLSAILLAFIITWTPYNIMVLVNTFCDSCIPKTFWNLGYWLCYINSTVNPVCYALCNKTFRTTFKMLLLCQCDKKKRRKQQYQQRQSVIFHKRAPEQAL
Method: as §1, §2

m4 = biological target: T9, m4 (Homo sapiens, UniProt P08173); settings: read-out: pEC50/pIC50 (converted)
T9 construct: expressed in transfected cells; host or cells: NIH3T3
T9 sequence (P08173 1-479): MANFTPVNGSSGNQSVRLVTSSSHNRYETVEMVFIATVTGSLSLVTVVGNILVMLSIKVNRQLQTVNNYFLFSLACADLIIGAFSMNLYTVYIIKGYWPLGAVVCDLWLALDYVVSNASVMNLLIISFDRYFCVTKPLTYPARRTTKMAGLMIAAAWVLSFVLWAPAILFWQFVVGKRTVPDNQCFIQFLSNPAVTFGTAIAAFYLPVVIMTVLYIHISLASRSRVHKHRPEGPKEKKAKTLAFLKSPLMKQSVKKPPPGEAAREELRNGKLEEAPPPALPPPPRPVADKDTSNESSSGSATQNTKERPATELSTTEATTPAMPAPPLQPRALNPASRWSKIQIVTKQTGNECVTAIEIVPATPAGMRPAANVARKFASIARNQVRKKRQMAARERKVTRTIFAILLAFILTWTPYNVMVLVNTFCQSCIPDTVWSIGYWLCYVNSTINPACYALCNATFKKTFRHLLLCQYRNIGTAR
Method: as §1, §2

5HT1E = 5HT1E (Homo sapiens, UniProt P28566); parameters: expressed in transfected cells; settings: read-out: pEC50/pIC50 (converted)
Sequence of 5HT1E (P28566 whole entry, species assumed): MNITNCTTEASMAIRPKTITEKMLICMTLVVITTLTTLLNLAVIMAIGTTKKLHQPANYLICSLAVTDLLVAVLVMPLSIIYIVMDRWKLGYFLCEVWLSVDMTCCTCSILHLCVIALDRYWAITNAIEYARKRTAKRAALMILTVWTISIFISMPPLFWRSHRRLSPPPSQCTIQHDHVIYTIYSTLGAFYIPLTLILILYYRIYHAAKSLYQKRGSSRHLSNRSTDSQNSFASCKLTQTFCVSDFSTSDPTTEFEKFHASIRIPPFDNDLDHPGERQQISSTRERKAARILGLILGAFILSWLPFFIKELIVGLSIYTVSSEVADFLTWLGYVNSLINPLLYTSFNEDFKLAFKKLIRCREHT
Method: as §1, §2

T1 sequence (P50406 whole entry, species assumed): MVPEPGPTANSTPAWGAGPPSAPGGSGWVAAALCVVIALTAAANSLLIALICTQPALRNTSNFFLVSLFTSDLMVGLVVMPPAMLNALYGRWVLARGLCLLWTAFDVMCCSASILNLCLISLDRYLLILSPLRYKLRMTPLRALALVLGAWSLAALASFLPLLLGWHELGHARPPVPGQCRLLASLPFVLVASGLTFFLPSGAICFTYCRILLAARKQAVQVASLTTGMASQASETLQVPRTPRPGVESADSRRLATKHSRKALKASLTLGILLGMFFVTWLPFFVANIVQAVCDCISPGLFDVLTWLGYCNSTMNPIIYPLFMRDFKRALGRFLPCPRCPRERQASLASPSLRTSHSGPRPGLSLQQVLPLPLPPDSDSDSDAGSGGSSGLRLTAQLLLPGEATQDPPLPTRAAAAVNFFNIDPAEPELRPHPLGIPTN

COc1ccc(CC(=O)N(Cc2ccc(C)cc2)C2CCN(C)CC2)cc1 [Example 50ELH27, 2-(4-Methoxyphenyl)-N-(4-methylbenzyl)-N-(1-methylpiperidin-4-yl)acetamide] was tested, and the IC50 (5-HT6; Inv. Agonist) was 0.158 µM, the EC50 (5-HT6; agonist) was greater than 3.16 µM and the EC50 (D1; agonist) was greater than 3.16 µM. For the same compound, the IC50 (D1; antagonist) was greater than 3.16 µM, the EC50 (Histamine 2; agonist) was greater than 3.16 µM and the IC50 (Histamine 2; antagonist) was greater than 3.16 µM. The EC50 (NK-1) was greater than 3.16 µM, the EC50 (alpha 2A; agonist) was greater than 3.16 µM and the IC50 (alpha 2A; antagonist) was greater than 3.16 µM. It also gave an EC50 (beta 1; agonist) greater than 3.16 µM, an IC50 (beta 1; antagonist) greater than 3.16 µM and an EC50 (beta 2; agonist) greater than 3.16 µM. For the same compound, the IC50 (beta 2; antagonist) was greater than 3.16 µM, the EC50 (m3; agonist) was greater than 3.16 µM and the IC50 (m3; antagonist) was greater than 3.16 µM. The EC50 (m4; agonist) was greater than 3.16 µM, the IC50 (m4; antagonist) was greater than 3.16 µM and the EC50 (5HT1E; agonist) was greater than 3.16 µM. For the same compound, the IC50 (5HT1E; antagonist) was greater than 3.16 µM.

— patent US20080051429A1, “USE OF 4-AMINO-PIPERIDINES FOR TREATING SLEEP DISORDERS” (priority 2006, published 2008)
